Source: PubChem BioAssay (NCI)
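Abbreviation: GI50, concentration required for 50% inhibition of growth. Definition used: TGI = concentration required for complete inhibition of growth.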

Experiments:
Test in all cases: DTP human tumour cell line panel, 384-well format
SF-268 CNS = system: SF-268 CNS
HCT-116 colon = system: HCT-116 colon
ACHN renal = system: ACHN renal
NCI-H226 lung = system: NCI-H226 lung
RXF 393 renal = system: RXF 393 renal
HOP-92 NSCLC = system: HOP-92 NSCLC
SF-539 CNS = system: SF-539 CNS
MALME-3M melanoma = system: MALME-3M melanoma
EKVX NSCLC = system: EKVX NSCLC
KM12 colon = system: KM12 colon
MCF7 breast = system: MCF7 breast
SNB-19 CNS = system: SNB-19 CNS
A549 NSCLC = system: A549 NSCLC
OVCAR-8 ovarian = system: OVCAR-8 ovarian
UACC-62 melanoma = system: UACC-62 melanoma
SF-295 CNS = system: SF-295 CNS
COLO 205 colon = system: COLO 205 colon
SNB-75 CNS = system: SNB-75 CNS
IGROV1 ovarian = system: IGROV1 ovarian
DU-145 prostate = system: DU-145 prostate
NCI-H322M lung = system: NCI-H322M lung
M14 melanoma = system: M14 melanoma
CAKI-1 renal = system: CAKI-1 renal
OVCAR-4 ovarian = system: OVCAR-4 ovarian
NCI/ADR-RES ovarian = system: NCI/ADR-RES ovarian
MDA-MB-231 breast = system: MDA-MB-231 breast
T-47D breast = system: T-47D breast
SN12C renal = system: SN12C renal
HOP-62 NSCLC = system: HOP-62 NSCLC
TK-10 renal = system: TK-10 renal
NCI-H522 lung = system: NCI-H522 lung
SW-620 colon = system: SW-620 colon
RPMI-8226 leukemia = system: RPMI-8226 leukemia
UACC-257 melanoma = system: UACC-257 melanoma
NCI-H23 lung = system: NCI-H23 lung
HCT-15 colon = system: HCT-15 colon
BT-549 breast = system: BT-549 breast
OVCAR-3 ovarian = system: OVCAR-3 ovarian
UO-31 renal = system: UO-31 renal
A498 renal = system: A498 renal
PC-3 prostate = system: PC-3 prostate
SR leukemia = system: SR leukemia
CCRF-CEM leukemia = system: CCRF-CEM leukemia
K-562 leukemia = system: K-562 leukemia
HCC-2998 colon = system: HCC-2998 colon
SK-OV-3 ovarian = system: SK-OV-3 ovarian
NCI-H460 NSCLC = system: NCI-H460 NSCLC
U251 glioblastoma = system: U251 glioblastoma
786-0 renal = system: 786-0 renal
MDA-MB-468 breast = system: MDA-MB-468 breast
HL-60(TB) leukemia = system: HL-60(TB) leukemia
HT29 colon = system: HT29 colon
SK-MEL-28 melanoma = system: SK-MEL-28 melanoma
MDA-MB-435 melanoma = system: MDA-MB-435 melanoma
HS 578T breast = system: HS 578T breast
LOX IMVI melanoma = system: LOX IMVI melanoma
SK-MEL-5 melanoma = system: SK-MEL-5 melanoma
MOLT-4 leukemia = system: MOLT-4 leukemia

Compound: CN(C)CCCOc1ccc(-c2ccc3ncc4c(c3c2)n(C2CCOCC2)c(=O)n4C)cn1
- GI50 (SF-268 CNS): 4.23 µM
- TGI (SF-268 CNS): > 100 µM
- GI50 (HCT-116 colon): 6.44 µM
- TGI (HCT-116 colon): 55.7 µM
- GI50 (ACHN renal): 5.21 µM
- TGI (ACHN renal): > 100 µM
- GI50 (NCI-H226 lung): 3.73 µM
- TGI (NCI-H226 lung): > 100 µM
- GI50 (RXF 393 renal): 5.05 µM
- TGI (RXF 393 renal): > 100 µM
- GI50 (HOP-92 NSCLC): 3.45 µM
- TGI (HOP-92 NSCLC): 20.2 µM
- GI50 (SF-539 CNS): 3.85 µM
- TGI (SF-539 CNS): > 100 µM
- GI50 (MALME-3M melanoma): 1.24 µM
- TGI (MALME-3M melanoma): 6.1 µM
- GI50 (EKVX NSCLC): 2.39 µM
- TGI (EKVX NSCLC): > 100 µM
- GI50 (KM12 colon): 2.67 µM
- TGI (KM12 colon): 26 µM
- GI50 (MCF7 breast): 1.91 µM
- TGI (MCF7 breast): > 100 µM
- GI50 (SNB-19 CNS): 22.9 µM
- TGI (SNB-19 CNS): > 100 µM
- GI50 (A549 NSCLC): 3.91 µM
- TGI (A549 NSCLC): > 100 µM
- GI50 (OVCAR-8 ovarian): 5.22 µM
- TGI (OVCAR-8 ovarian): > 100 µM
- GI50 (UACC-62 melanoma): 4.33 µM
- TGI (UACC-62 melanoma): 23.3 µM
- GI50 (SF-295 CNS): 2.95 µM
- TGI (SF-295 CNS): > 100 µM
- GI50 (COLO 205 colon): 2.17 µM
- TGI (COLO 205 colon): 13.5 µM
- GI50 (SNB-75 CNS): 2.76 µM
- TGI (SNB-75 CNS): > 100 µM
- GI50 (IGROV1 ovarian): 1.17 µM
- TGI (IGROV1 ovarian): 6.42 µM
- GI50 (DU-145 prostate): 4.92 µM
- TGI (DU-145 prostate): > 100 µM
- GI50 (NCI-H322M lung): 3.21 µM
- TGI (NCI-H322M lung): 36.7 µM
- GI50 (M14 melanoma): 3.32 µM
- TGI (M14 melanoma): > 100 µM
- GI50 (CAKI-1 renal): 1.45 µM
- TGI (CAKI-1 renal): 6.38 µM
- GI50 (OVCAR-4 ovarian): 7.94 µM
- TGI (OVCAR-4 ovarian): > 100 µM
- GI50 (NCI/ADR-RES ovarian): > 100 µM
- TGI (NCI/ADR-RES ovarian): > 100 µM
- GI50 (MDA-MB-231 breast): 2.08 µM
- TGI (MDA-MB-231 breast): > 100 µM
- GI50 (T-47D breast): 1.22 µM
- TGI (T-47D breast): 11.7 µM
- GI50 (SN12C renal): 2.32 µM
- TGI (SN12C renal): 32.8 µM
- GI50 (HOP-62 NSCLC): 3.81 µM
- TGI (HOP-62 NSCLC): > 100 µM
- GI50 (TK-10 renal): 3 µM
- TGI (TK-10 renal): 49.5 µM
- GI50 (NCI-H522 lung): 3.48 µM
- TGI (NCI-H522 lung): > 100 µM
- GI50 (SW-620 colon): 4.91 µM
- TGI (SW-620 colon): > 100 µM
- GI50 (RPMI-8226 leukemia): 0.738 µM
- TGI (RPMI-8226 leukemia): 2.39 µM
- GI50 (UACC-257 melanoma): > 100 µM
- TGI (UACC-257 melanoma): > 100 µM
- GI50 (NCI-H23 lung): 8.22 µM
- TGI (NCI-H23 lung): > 100 µM
- GI50 (HCT-15 colon): 5.01 µM
- TGI (HCT-15 colon): > 100 µM
- GI50 (BT-549 breast): 3.56 µM
- TGI (BT-549 breast): 30 µM
- GI50 (OVCAR-3 ovarian): 1.69 µM
- TGI (OVCAR-3 ovarian): 4.86 µM
- GI50 (UO-31 renal): 4.78 µM
- TGI (UO-31 renal): > 100 µM
- GI50 (A498 renal): 2.54 µM
- TGI (A498 renal): > 100 µM
- GI50 (PC-3 prostate): 1.73 µM
- TGI (PC-3 prostate): 12 µM
- GI50 (SR leukemia): 0.172 µM
- TGI (SR leukemia): 0.445 µM
- GI50 (CCRF-CEM leukemia): 1.95 µM
- TGI (CCRF-CEM leukemia): 10 µM
- GI50 (K-562 leukemia): 7.55 µM
- TGI (K-562 leukemia): 30.6 µM
- GI50 (HCC-2998 colon): 3.12 µM
- TGI (HCC-2998 colon): > 100 µM
- GI50 (SK-OV-3 ovarian): 2.45 µM
- TGI (SK-OV-3 ovarian): 71.9 µM
- GI50 (NCI-H460 NSCLC): 1.5 µM
- TGI (NCI-H460 NSCLC): 96.2 µM
- GI50 (U251 glioblastoma): > 100 µM
- TGI (U251 glioblastoma): > 100 µM
- GI50 ([…]-0 renal): 5.99 µM
- TGI (786-0 renal): > 100 µM
- GI50 (MDA-MB-468 breast): 2.47 µM
- TGI (MDA-MB-468 breast): 19.9 µM
- GI50 (HL-60(TB) leukemia): 2.95 µM
- TGI (HL-60(TB) leukemia): 11 µM
- GI50 (HT29 colon): 4.36 µM
- TGI (HT29 colon): 27.8 µM
- GI50 (SK-MEL-28 melanoma): 5.73 µM
- TGI (SK-MEL-28 melanoma): > 100 µM
- GI50 (MDA-MB-435 melanoma): 6.28 µM
- TGI (MDA-MB-435 melanoma): > 100 µM
- GI50 (HS 578T breast): 1.47 µM
- TGI (HS 578T breast): 4.14 µM
- GI50 (LOX IMVI melanoma): 2.45 µM
- TGI (LOX IMVI melanoma): 14.5 µM
- GI50 (SK-MEL-5 melanoma): 2.23 µM
- TGI (SK-MEL-5 melanoma): > 100 µM
- GI50 (MOLT-4 leukemia): 1.39 µM
- TGI (MOLT-4 leukemia): 4.71 µM
